Assay results: patent US10800785B2, “Substituted pyrrolo[2,3-d]pyridazin-4-ones and pyrazolo[3,4-d]pyridazin-4-ones as protein kinase inhibitors” (Shanghai Fochon Pharmaceutical Co., Ltd., priority 2016, dated 2020)

Tested on: DOHH2 cells
Assay: Cell proliferation assay (MTS) in DOHH2 cells, mechanism-based assay for BTK inhibition
Conditions: Homo sapiens, DOHH-2, 120 h incubation, 5000 cells/well
Excerpt: Cell Proliferation Assays
MTS testing kit was purchased from Promega. The DMEM, Fetal bovine serum and Penicillin-Streptomycin were purchased from Gibco. Dimethyl sulfoxide (DMSO) was purchased from Sigma.
To investigate whether a compound is able to inhibit the activity of BTK in cells, a mechanism-based assay using DOHH2 (DSMZ catalog#: ACC47) and Mino (ATCC® Number CRL-3000™) cells was developed. In this assay, inhibition of BTK was detected by the inhibition of DOHH2 and Mino cell proliferations. DOHH2 or Mino cells were cultured in culture flasks to 40-80% confluence in RPMI-1640 plus 10% fetal bovine serum. C ells were collected and plated onto 96-well plates at desired cell density (DOHH2: 5000 cells/well; Mino: 10000 cells/well). Plates were incubated overnight at 37° C., with 5% CO2 to adhere. Compounds were added to the plates, and the final compound concentrations were 10000, 3333, 1111, […], 41, 14, 4.6 and 1.5 nM. Plates were placed at 37° C., with 5% CO2 for 120 h (DOHH2) or 72 h (Mino). 20 μl MTS/100 μl medium mixture solution were added to each well and the plates were incubated for exactly 2 hours. The reaction was stopped by adding 25 μl 10% SDS per well.
Select compounds prepared as described above were assayed according to the biological procedures described herein.

Structure (SMILES)	IC50 [nM]
CC#CC(=O)N1CC[C@H](c2nn(-c3ccc(Oc4ccccc4)cc3)c3c(N)n[nH]c(=O)c23)C1 [Example 66, (S)-7-amino-3-(1-(but-2-ynoyl)pyrrolidin-3-yl)-1-(4-phenoxyphenyl)-1,5-dihydro-4H-pyrazolo [3,4-d]pyridazin-4-one]	242
COC/C=C/C(=O)N1CC[C@@H](c2cn(-c3ccc(Oc4ccccc4F)cc3)c3c(N)n[nH]c(=O)c23)C1 [Example 92, (S,E)-amino-1-(4-(2-fluorophenoxy)phenyl)-3-(1-(4-methoxybut-2-enoyl)pyrrolidin-3-yl)-1,5-dihydro-4H-pyrrolo[2,3-d]pyridazin-4-one]	649
C=CC(=O)N1CCC(c2cn(-c3ccc(Oc4ccccc4F)cc3)c3c(N)n[nH]c(=O)c23)CC1 [Example 113, 3-(1-acryloylpiperidin-4-yl)-7-amino-1-(4-(2-fluorophenoxy)phenyl)-1,5-dihydro-4H-pyrrolo[2,3-d]pyridazin-4-one]	161
C=CC(=O)N1CC[C@@H](c2cn(-c3ccc(Oc4ccccc4F)cc3)c3c(N)n[nH]c(=O)c23)C1 [Example 17, (S)-3-(1-acryloylpyrrolidin-3-yl)-7-amino-1-(4-(2-fluorophenoxy)phenyl)-1,5-dihydro-4H-pyrrolo[2,3-d]pyridazin-4-one]	21
CC#CC(=O)N1CC[C@@H](c2nn(-c3ccc(Oc4ccccc4)cc3)c3c(N)n[nH]c(=O)c23)C1 [Example 65, (R)-7-amino-3-(1-(but-2-ynoyl)pyrrolidin-3-yl)-1-(4-phenoxyphenyl)-1,5-dihydro-4H-pyrazolo[3,4-d]pyridazin-4-one]	505
COC/C=C/C(=O)N1CCC[C@@H](c2cn(-c3ccc(Oc4ccccc4)cc3)c3c(N)n[nH]c(=O)c23)C1 [Example 101, (S,E)-7-amino-3-(1-(4-methoxybut-2-enoyl)piperidin-3-yl)-1-(4-phenoxyphenyl)-1,5-dihydro-4H-pyrrolo[2,3-d]pyridazin-4-one]	208
C=CC(=O)N1CCC[C@@H](c2cn(-c3ccc(Oc4c(F)cccc4F)cc3)c3c(N)n[nH]c(=O)c23)C1 [Example 33, (S)-3-(1-acryloylpiperidin-3-yl)-7-amino-1-(4-(2,6-difluorophenoxy)phenyl)-1,5-dihydro-4H-pyrrolo[2,3-d]pyridazin-4-one]	221
C=CC(=O)N1CCC[C@H](c2cn(-c3ccc(Oc4cc(F)cc(F)c4)cc3)c3c(N)n[nH]c(=O)c23)C1 [Example 40, (R)-3-(1-acryloylpiperidin-3-yl)-7-amino-1-(4-(3,5-difluorophenoxy)phenyl)-1,5-dihydro-4H-pyrrolo[2,3-d]pyridazin-4-one]	375
C=CC(=O)N1CCC[C@H](c2nn(-c3ccc(Oc4ccccc4)cc3)c3c(N)n[nH]c(=O)c23)C1 [Example 16, (S)-3-(1-acryloylpiperidin-3-yl)-7-amino-1-(4-phenoxyphenyl)-1,5-dihydro-4H-pyrazolo[3,4-d]pyridazin-4-one]	37
C=CC(=O)N1CC[C@H](c2cn(-c3ccc(Oc4cccc(F)c4)cc3)c3c(N)n[nH]c(=O)c23)C1 [Example 24, (R)-3-(1-acryloylpyrrolidin-3-yl)-7-amino-1-(4-(3-fluorophenoxy)phenyl)-1,5-dihydro-4H-pyrrolo[2,3-d]pyridazin-4-one]	373
C=CC(=O)N1CCC[C@@H](c2nn(-c3ccc(Oc4cc(F)cc(F)c4)cc3)c3c(N)n[nH]c(=O)c23)C1 [Example 58, (R)-3-(1-acryloylpiperidin-3-yl)-7-amino-1-(4-(3,5-difluorophenoxy)phenyl)-1,5-dihydro-4H-pyrazolo[3,4-d]pyridazin-4-one]	224
C=CC(=O)N1CC[C@@H](c2cn(-c3ccc(Oc4cc(F)cc(F)c4)cc3)c3c(N)n[nH]c(=O)c23)C1 [Example 22, (S)-3-(1-acryloylpyrrolidin-3-yl)-7-amino-1-(4-(3,5-difluorophenoxy)phenyl)-1,5-dihydro-4H-pyrrolo[2,3-d]pyridazin-4-one]	86
CC#CC(=O)N1CCC(c2nn(-c3ccc(Oc4c(F)cccc4F)cc3)c3c(N)n[nH]c(=O)c23)C1 (stereo not shown) [Example 8, 7-amino-3-(1-(but-2-ynoyl)pyrrolidin-3-yl)-1-(4-(2,6-difluorophenoxy)phenyl)-1,5-dihydro-4H-pyrazolo[3,4-d]pyridazin-4-one]	304
C=CC(=O)N1CCC[C@@H](c2cn(-c3ccc(Oc4cccc(F)c4)cc3)c3c(N)n[nH]c(=O)c23)C1 [Example 30, (S)-3-(1-acryloylpiperidin-3-yl)-7-amino-1-(4-(3-fluorophenoxy)phenyl)-1,5-dihydro-4H-pyrrolo [2,3-d]pyridazin-4-one]	129
CC#CC(=O)N1CCC[C@@H](c2cn(-c3ccc(Oc4ccccc4F)cc3)c3c(N)n[nH]c(=O)c23)C1 [Example 79, (S)-7-amino-3-(1-(but-2-ynoyl)piperidin-3-yl)-1-(4-(2-fluorophenoxy)phenyl)-1,5-dihydro-4H-pyrrolo[2,3-d]pyridazin-4-one]	164
C=CC(=O)N1CC[C@H](c2nn(-c3ccc(Oc4ccccc4)cc3)c3c(N)n[nH]c(=O)c23)C1 [Example 14, (S)-3-(1-acryloylpyrrolidin-3-yl)-7-amino-1-(4-phenoxyphenyl)-1,5-dihydro-4H-pyrazolo[3,4-d]pyridazin-4-one]	50
C=CC(=O)N1CC(c2cn(-c3ccc(Oc4ccccc4F)cc3)c3c(N)n[nH]c(=O)c23)C1 [Example 111, 3-(1-acryloylazetidin-3-yl)-7-amino-1-(4-(2-fluorophenoxy)phenyl)-1,5-dihydro-4H-pyrrolo [2,3-d]pyridazin-4-one]	261
CC#CC(=O)N1CCC[C@@H](c2nn(-c3ccc(Oc4ccccc4)cc3)c3c(N)n[nH]c(=O)c23)C1 [Example 69, (R)-7-amino-3-(1-(but-2-ynoyl)piperidin-3-yl)-1-(4-phenoxyphenyl)-1,5-dihydro-4H-pyrazolo [3,4-d]pyridazin-4-one]	863
CC#CC(=O)N1CC[C@@H](c2cn(-c3ccc(Oc4ccccc4)cc3)c3c(N)n[nH]c(=O)c23)C1 [Example 67, (S)-7-amino-3-(1-(but-2-ynoyl)pyrrolidin-3-yl)-1-(4-phenoxyphenyl)-1,5-dihydro-4H-pyrrolo [2,3-d]pyridazin-4-one]	205
CC#CC(=O)N1CCC[C@H](c2cn(-c3ccc(Oc4c(F)cccc4F)cc3)c3c(N)n[nH]c(=O)c23)C1 [Example 88, (R)-7-amino-3-(1-(but-2-ynoyl)piperidin-3-yl)-1-(4-(2,6-difluorophenoxy)phenyl)-1,5-dihydro-4H-pyrrolo[2,3-d]pyridazin-4-one]	432
COC/C=C/C(=O)N1CC[C@@H](c2cn(-c3ccc(Oc4ccccc4)cc3)c3c(N)n[nH]c(=O)c23)C1 [Example 91, (S,E)-7-amino-3-(1-(4-methoxybut-2-enoyl)pyrrolidin-3-yl)-1-(4-phenoxyphenyl)-1,5-dihydro-4H-pyrrolo[2,3-d]pyridazin-4-one]	640
C=CC(=O)N1CCC[C@@H](c2nn(-c3ccc(Oc4cccc(F)c4F)cc3)c3c(N)n[nH]c(=O)c23)C1 [Example 56, (R)-3-(1-acryloylpiperidin-3-yl)-7-amino-1-(4-(2,3-difluorophenoxy)phenyl)-1,5-dihydro-4H-pyrazolo[3,4-d]pyridazin-4-one]	42
C=CC(=O)N1CC[C@H](c2cn(-c3ccc(Oc4cccc(F)c4F)cc3)c3c(N)n[nH]c(=O)c23)C1 [Example 26, (R)-3-(1-acryloylpyrrolidin-3-yl)-7-amino-1-(4-(2,3-difluorophenoxy)phenyl)-1,5-dihydro-4H-pyrrolo[2,3-d]pyridazin-4-one]	260
C=CC(=O)N1CC[C@H](c2cn(-c3ccc(Oc4ccccc4)cc3)c3c(N)n[nH]c(=O)c23)C1 [Example 10, (R)-3-(1-acryloylpyrrolidin-3-yl)-7-amino-1-(4-phenoxyphenyl)-1,5-dihydro-4H-pyrrolo[2,3-d]pyridazin-4-one]	20
CC#CC(=O)N1CCC(c2cn(-c3ccc(Oc4c(F)cccc4F)cc3)c3c(N)n[nH]c(=O)c23)C1 (stereo not shown) [Example 4, 7-amino-3-(1-(but-2-ynoyl)pyrrolidin-3-yl)-1-(4-(2,6-difluorophenoxy)phenyl)-1,5-dihydro-4H-pyrrolo[2,3-d]pyridazin-4-one]	250
CC#CC(=O)N1CCC[C@H](c2cn(-c3ccc(Oc4ccccc4)cc3)c3c(N)n[nH]c(=O)c23)C1 [Example 72, (R)-7-amino-3-(1-(but-2-ynoyl)piperidin-3-yl)-1-(4-phenoxyphenyl)-1,5-dihydro-4H-pyrrolo[2,3-d]pyridazin-4-one]	260
C=CC(=O)N1CCC(c2cn(-c3ccc(Oc4ccccc4)cc3)c3c(N)n[nH]c(=O)c23)CC1 [Example 112, 3-(1-acryloylpiperidin-4-yl)-7-amino-1-(4-phenoxyphenyl)-1,5-dihydro-4H-pyrrolo[2,3-d]pyridazin-4-one]	78
CN(C)C/C=C/C(=O)N1CCC[C@@H](c2cn(-c3ccc(Oc4ccccc4F)cc3)c3c(N)n[nH]c(=O)c23)C1 [Example 104, (S,E)-7-amino-3-(1-(4-(dimethylamino)but-2-enoyl)piperidin-3-yl)-1-(4-(2-fluorophenoxy)phenyl)-1,5-dihydro-4H-pyrrolo[2,3-d]pyridazin-4-one]	151
